Our source for the Ki and IC50 values is patent publication US20250122225A1, “MASP-2 INHIBITORS AND METHODS OF USE” (Omeros Corporation, priority 2023, published 2025).

Where a name gives a salt, the structure may show the parent alone. Some results are limits rather than exact numbers.

Common to all, as to format: biochemical
One test has as its target T1, human α-thrombin (Homo sapiens, UniProt P00734).
T1 construct: enzyme (human α-thrombin (BioPharm® Lab.)) in assay buffer; purchased BioPharm® Lab
The test is described as follows: Enzymatic assay for thrombin (fluorogenic peptide substrate Boc-VPR-AMC). Summed up:
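Human α-thrombin was run with the fluorogenic substrate Boc-VPR-AMC in 20 mM Hepes pH 7.4, 140 mM NaCl, 0.1% Tween 20 at room temperature for 20 min, then stopped with 0.1 M acetic acid. % activity was normalized to DMSO and no-enzyme controls. Under linear conditions IC50 equalled Ki, except for tight-binding inhibitors.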

Test [1] relates to Lectin Pathway Activation in human serum. The test is described as follows: Lectin Pathway Activation (LPA) assay in human serum, mannan-coated ELISA plate, C4c detection. The settings on record: 1% human serum, read-out: LPA Functional Activity (IC50). The method, then: Lectin Pathway Activation (LPA) Assay in Human Serum Treated with Compounds
A microtiter ELISA plate was coated with mannan (1 mg/ml) from Saccharomyces cerevisiae (Sigma-Aldrich®, M7504) overnight at 4° C. in coating buffer [33.3 mM Na2CO3, 166.67 mM NaHCO3]. The plate was blocked with 5% bovine serum albumin (BSA) (Sigma-Aldrich®, A3294) in 1×PBST [Phosphate Buffered Saline Solution (1.06 mM KH2PO4, 155.2 mM NaCl, 2.97 mM Na2HPO4^−·7H2O, pH 7.4), 0.05% Tween-20] shaking for 2 hours at room temperature. 1% human serum was incubated with serial dilutions of small compounds in 1× LPA+ Buffer [20 mM Hepes, pH 7.4, 140 mM NaCl, 2 mM MgCl2 (6H2O)] and incubated for 5 minutes at room temperature. 40 μL of this mixture was then added to the plate, and the plate was incubated at room temperature for 55 mins. Next, the reaction was stopped by adding 20 μL of EDTA Stop Solution [20 mM Hepes, pH7.4, 140 mM NaCl, 150 mM EDTA] to the plate. The plate was then washed 10× in wash buffer 1×PBST; 40 μL of Rabbit Anti Human C4c Antibody [Dako®, Q0369] diluted 1:20000 in wash buffer was added; and the plate was incubated shaking at room temperature for 30 minutes. The plate was washed [5× times]; 40 μL of Goat Anti-rabbit Antibody-HRP Conjugate [Southern Biotech®, 4050-05] diluted 1:10000 in wash buffer was added; and the plate was incubated shaking at room temperature for 30 minutes. After that, the plate was washed five times; 40 µL/well of Amplex® UltraRed Substrate Solution [1× LPA Buffer, 10 mM Amplex® UltraRed Stock Solution [Thermo Fisher Sci.®, A36006], 3% stabilized hydrogen peroxide [Sigma Aldrich®, 216763] was added; the plate was incubated at room temperature for 16 minutes; the reaction was stopped by adding 8 µL/well of Amplex® UltraRed Stop Solution [Thermo Fisher Sci.®, A33855] in 100% EtOH. Finally, the plate was read for fluorescence at Ex: 550 nm, Em: 580 nm on the i3x Microplate Reader.

A further test addresses T2, MASP-2 (CCP1-CCP2-SP) (Homo sapiens, UniProt O00187).
T2 construct: 15 μL of Enzyme MASP-2 (CCP1-CCP2-SP) in Assay Buffer
The test is described as follows: Enzymatic assay for MASP-2 inhibitory activity (fluorogenic substrate). Summed up: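 MASP-2 (CCP1-CCP2-SP) cleaved a fluorogenic substrate based on the C2 cleavage site in 20 mM HEPES pH 7.4, 140 mM NaCl, 0.1% Tween 20 at room temperature. After 20 min the reaction was stopped with 0.1 M acetic acid and fluorescence read. % activity was normalized to DMSO-only and no-enzyme controls; IC50 taken as Ki.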

T2 sequence (O00187 445-686 limits assumed): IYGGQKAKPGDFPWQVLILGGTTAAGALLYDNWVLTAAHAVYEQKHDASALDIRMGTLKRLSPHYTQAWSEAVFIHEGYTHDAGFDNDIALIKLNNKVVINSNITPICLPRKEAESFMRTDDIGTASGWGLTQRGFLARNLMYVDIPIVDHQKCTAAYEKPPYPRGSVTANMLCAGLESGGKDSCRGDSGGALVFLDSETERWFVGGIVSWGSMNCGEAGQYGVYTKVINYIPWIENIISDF
T2 sequence (O00187 287-444 partner limits assumed): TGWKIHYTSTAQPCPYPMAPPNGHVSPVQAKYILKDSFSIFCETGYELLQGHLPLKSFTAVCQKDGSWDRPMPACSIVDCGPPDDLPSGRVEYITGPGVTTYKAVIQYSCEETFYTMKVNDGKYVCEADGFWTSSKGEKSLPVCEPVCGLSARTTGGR

For `CC[C@@H](Nc1ncc2n(c1=O)[C@H](C(=O)N[C@H](C)c1cc3c(s1)CNC3)CC2)c1ccccc1` [Compound 277], the Ki is 500 to 2500 nM at human α-thrombin and under 500 nM at MASP-2 (CCP1-CCP2-SP). Moreover, the IC50 in test [1] lay in the range of 50 to 500 nM.
Take `COc1cc(C)cc(CNc2ncc3n(c2=O)[C@H](C(=O)NCc2cc4cnccc4[nH]2)CC3)c1` [Compound 48, (S)-N-((1H-pyrrolo[3,2-c]pyridin-2-yl)methyl)-3-((3-methoxy-5-methylbenzyl)amino)-4-oxo-4,6,7,8-tetrahydropyrrolo[1,2-a]pyrazine-6-carboxamide]: the Ki on human α-thrombin and on MASP-2 (CCP1-CCP2-SP) was under 500 nM in each case. In addition, in test [1], the 50% inhibitory concentration (IC50) was under 50 nM.
For `Cc1cc(F)cc(CNc2ncc3n(c2=O)[C@H](C(=O)NCc2ccc(N)nc2C)CC3)c1` [Compound 69, (S)-N-((6-amino-2-methylpyridin-3-yl)methyl)-3-((3-fluoro-5-methylbenzyl)amino)-4-oxo-4,6,7,8-tetrahydropyrrolo[1,2-a]pyrazine-6-carboxamide], the Ki at human α-thrombin and at MASP-2 (CCP1-CCP2-SP) was under 500 nM throughout. In addition, in test [1], the IC50 was under 50 nM.
With `Cc1cc(C)cc([C@@H](CO)Nc2ncc3n(c2=O)[C@H](C(=O)NCc2cc4cnccc4[nH]2)CC3)c1` [Compound 75, (S)-N-((1H-pyrrolo[3,2-c]pyridin-2-yl)methyl)-3-(((S)-1-(3,5-dimethylphenyl)-2-hydroxyethyl)amino)-4-oxo-4,6,7,8-tetrahydropyrrolo[1,2-a]pyrazine-6-carboxamide], the Ki at human α-thrombin and at MASP-2 (CCP1-CCP2-SP) was under 500 nM throughout. For the same compound, the IC50 in test [1] was under 50 nM.
Consider `Cc1nc(N)ccc1CNC(=O)[C@@H]1CCc2c(Cl)nc(NCc3cccc(-c4ccccc4)c3)c(=O)n21` [Compound 221, (S)-3-(([1,1′-biphenyl]-3-ylmethyl)amino)-N-((6-amino-2-methylpyridin-3-yl)methyl)-1-chloro-4-oxo-4,6,7,8-tetrahydropyrrolo[1,2-a]pyrazine-6-carboxamide trifluoroacetate], for which the Ki is 2500 to 10000 nM at human α-thrombin and under 500 nM on MASP-2 (CCP1-CCP2-SP). Moreover, the half-inhibitory concentration (IC50) in test [1] was under 50 nM.
In the case of `Cc1cc(C)cc(CNc2ncc3n(c2=O)[C@H](C(=O)NCc2cc4cnccc4n2C)CC3)c1` [Compound 41, (S)-3-((3,5-dimethylbenzyl)amino)-N-((1-methyl-1H-pyrrolo[3,2-c]pyridin-2-yl)methyl)-4-oxo-4,6,7,8-tetrahydropyrrolo[1,2-a]pyrazine-6-carboxamide trifluoroacetate], the Ki was 500 to 2500 nM at human α-thrombin and under 500 nM at MASP-2 (CCP1-CCP2-SP). Moreover, in test [1], the IC50 is under 50 nM.

One may read the Ki as the dissociation constant of the complex between target and ligand, obtained from inhibition or displacement. The term IC50 denotes the midpoint of a concentration-inhibition curve.
